ChEMBL document CHEMBL1131595, “Chemoprotective properties of phenylpropenoids, bis(benzylidene)cycloalkanones, and related Michael reaction acceptors: correlation of potencies as phase 2 enzyme inducers and radical scavengers” (J Med Chem, 1998)

Test: Scavenging activity of compound (superoxide radicals generated by the oxidation of xanthine and xanthine oxidase),expressed as the percent quenching of luminescence of lucigenin at 50 nM concentration

Row | SMILES | Free radical scavenging
1 | COc1cc(/C=C2\CCC/C(=C\c3ccc(O)c(OC)c3)C2=O)ccc1O | 30%
2 | O=C1/C(=C/c2ccccc2O)CCC/C1=C\c1ccccc1O | 42%
3 | O=C1/C(=C/c2ccccc2)CCCC/C1=C\c1ccccc1 | 11%
4 | O=C1/C(=C/c2ccccc2O)CC/C1=C\c1ccccc1O | 70%
5 | COc1ccccc1/C=C1\CCC/C(=C\c2ccccc2OC)C1=O | 19%
6 | O=C1/C(=C/c2ccccc2)CC/C1=C\c1ccccc1 | 10%
7 | O=C1/C(=C/c2ccccc2)CCC/C1=C\c1ccccc1 | 11%
